Source: PMC11864979, “First-in-class ultralong-target-residence-time p38α inhibitors as a mitosis-targeted therapy for colorectal cancer” (Nature Cancer, 2025)
“And” between values parts separate entries of the source, which are not always exact repeats. Equal entries are not always repeated. Where two headings read alike, the source gives them in different places.

Experiments:
[1] = tested on: RKO; assay: cell viability in human CRC cell line RKO; assay type: cell-based
Protocol: (§1) To generate KAP^2D cells, KAP organoids were isolated from Matrigel, fragmented by mechanical dissociation and plated without any extracellular matrix on common cell culture dishes. Phoenix-Eco packaging cells (CRL-3214), HCT-15 (CCL-225), HCT 116 (CCL-247), COLO 205 (CCL-222), LS 174T (CL-188), RKO (CRL-2577) and HT-29 (HTB-38) were obtained from the American Type Culture Collection. The cells were cultured at 37 °C and 7% CO2 with RPMI (KAP^2D cells) or DMEM (other cell lines), supplemented with 10% FBS and penicillin–streptomycin. KAP^2D cells were authenticated using PCR (Kras locus and Trp53 locus). Phoenix-Eco packaging cells and HCT-15, HCT 116, COLO 205, LS 174T, RKO and HT-29 cells were authenticated by the provider using short tandem repeat profiling. No commonly misidentified cell lines were used. Mycoplasma contamination was excluded by a PCR-based analysis.
(§2) For in vitro treatment studies, organoids were mechanically dissociated and digested using TrypLE supplemented with 100 µg ml^−1 DNaseI and 10.5 µM Y-27632 dihydrochloride (Invitrogen) at 37 °C. A total of 1,000–2,000 single cells were plated per well in white 96-well plates (Greiner) in culture medium containing 10% GFR Matrigel or Cultrex BME. The treatment with doxycycline (5 µg ml^−1), pharmacological inhibitors or corresponding volumes of DMSO was started 24 h after plating. Doxycycline was obtained from Sigma-Aldrich. […] Cell viability was measured by means of CellTiter-Glo 3D or CellTiter-Glo 2.0 reagent (Promega) according to the manufacturers’ instructions and the Infinite M Plex reader (Tecan, i-control version 3.9.1 software). Results were normalized to vehicle (DMSO) or to shNC. For cell-doubling assays, the cell number was quantified at the corresponding time points using Guava EasyCyte flow cytometer (Luminex, CytoSoft v5.2 software).

[2] = tested on: KAP organoids; assay: cell viability in KAP organoids (CellTiter-Glo); assay type: cell-based, mouse; conditions: for viability at 1 µM: Mus musculus
Protocol: as §2

[3] = biological target: p38α (Homo sapiens, UniProt Q16539); assay: target residence time (TRT) fluorescence polarization jump-dilution assay; assay type: binding
Chain of p38α (Q16539 whole entry): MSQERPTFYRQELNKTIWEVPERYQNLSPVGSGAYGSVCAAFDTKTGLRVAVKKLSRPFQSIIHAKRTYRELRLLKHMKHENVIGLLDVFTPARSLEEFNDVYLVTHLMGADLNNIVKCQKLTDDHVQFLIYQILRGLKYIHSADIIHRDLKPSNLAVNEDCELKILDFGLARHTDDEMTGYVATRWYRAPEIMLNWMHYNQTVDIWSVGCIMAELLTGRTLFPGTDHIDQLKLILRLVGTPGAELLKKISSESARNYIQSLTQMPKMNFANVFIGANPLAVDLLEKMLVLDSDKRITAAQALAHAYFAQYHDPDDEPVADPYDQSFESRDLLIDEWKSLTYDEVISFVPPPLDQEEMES
Protocol: TRTs were determined using a fluorescence polarization assay kit (Transcreener ADP, BellBrook Labs)[29]. […] The formed complex was ‘jump-diluted’ 1:100 (0.5 µl in 49.5 µl) in a 96-half-area-well plate with ATF2 (82 μM), ATP (40 μM) and ADP as the kinase assay detection reagents. The plate was measured every 3 min for 4 h. Fluorescence polarization was detected using the plate reader VictorNivo (PerkinElmer). The data were analyzed using the integrated rate equation in GraphPad Prism version 7.03 software. The residence time was calculated from the reciprocal value of koff.

[4] = tested on: PDO6; assay: cell viability in patient-derived CRC organoids PDO6; assay type: cell-based, human
Protocol: as §2

[5] = tested on: PDO11; assay: cell viability in patient-derived CRC organoids PDO11; assay type: cell-based, human
Protocol: as §2

[6] = tested on: KAP^2D cells; assay: P-H3^S10 / α-tubulin staining, mitotic phases in KAP^2D cells; assay type: cell-based, mouse; conditions: replicates, experiment and repetition
Protocol: Immunofluorescence staining on cells and organoids was performed on glass coverslips or tissue culture chambers (Sarstedt). Organoids were plated in medium containing 10% Matrigel or Cultrex BME. The cultures were fixed with 4% paraformaldehyde and stained with specific antibodies and DAPI (Vector Labs). All used antibodies and dilutions are listed in the Nature Portfolio Reporting Summary. For analyzing DNA synthesis, the Molecular Probes Click-iT EdU Alexa Fluor 555 kit was used 24 h after EdU incorporation with DAPI counterstaining. SA-β-Gal staining of cells was performed in cell culture dishes (cells) or tissue culture chambers (organoids) after fixation with 0.5% glutaraldehyde as described above. Human cultures were incubated with X-Gal solution at pH 6.0 for ~4 h. […] Positive cells were quantified using ImageJ version 1.53a software. The analysis of mitosis was performed with an LSM800 Airyscan (Zeiss) microscope (ZEN version 3.0 software). An Airyscan autofilter processing was applied before image analysis.

[7] = tested on: subcutaneous KAP CRCs; assay: treatment of subcutaneous KAP tumors in wild-type mice; assay type: in vivo, mouse; conditions: for Tumor volume: single tumors, Fig. 5i
Protocol: Subcutaneous injection, splenic seeding or cecum injection of organoids was performed in 8–10-week-old C57BL/6 N/Crl, Rag2^−/− (B6.Cg-Rag2^tm1.1Cgn/J), or CB17 Scid beige (CB17.Cg-Prkdc^scidLyst^bg-J/Crl) mice, obtained from Charles River. The organoids were dissociated into single cells, washed with PBS and injected in a 1:1 mixture of PBS and Matrigel. For murine organoids, 1 × 10^5 cells were injected into the left and right flanks or the spleen capsule and 2 × 10^6 cells were injected into the cecum wall. For human organoids, 4 × 10^5 cells were injected into the flanks of CB17 Scid beige mice. For splenic seeding and cecum injection, mice were anaesthetized using ketamine (100 mg kg^−1, intraperitoneally) and xylazin (10 mg/kg, intraperitoneally) in NaCl and a small laparotomy below the thorax was performed.
No mice were excluded during treatment studies.

[8] = tested on: PDO14; assay: cell viability in patient-derived CRC organoids PDO14; assay type: cell-based, human
Protocol: as §2

[9] = tested on: COLO 205; assay: cell viability in human CRC cell line COLO 205; assay type: cell-based
Protocol: as §1, §2

CNC(=O)c1ccc2c(c1)C(=O)c1ccc(Nc3ccc(F)c(NC(=O)C4CC4)c3)cc1CC2 [Compound 2015]
RKO Cell viability (%) ([1]; 0.0137 µM, ED Fig. 9g, Repetition, replicates): 116.22% and 90.48% and 118.38%
RKO Cell viability (%) ([1]; 0.0137 µM, ED Fig. 9g, first experiment, replicates): 100.34% and 101.05%
RKO Cell viability (%) ([1]; 0.0412 µM, ED Fig. 9g, Repetition, replicates): 83.96% and 99.53%
RKO Cell viability (%) ([1]; 0.0412 µM, ED Fig. 9g, first experiment, replicates): 92.30% and 91.06%
RKO Cell viability (%) ([1]; 0.1235 µM, ED Fig. 9g, Repetition, replicates): 63.64% and 62.87%
RKO Cell viability (%) ([1]; 0.1235 µM, ED Fig. 9g, first experiment, replicates): 80.06% and 70.93%
RKO Cell viability (%) ([1]; 0.3704 µM, ED Fig. 9g, Repetition, replicates): 22.09% and 24.58%
RKO Cell viability (%) ([1]; 0.3704 µM, ED Fig. 9g, first experiment, replicates): 38.23% and 37.54%
RKO Cell viability (%) ([1]; 1.1111 µM, ED Fig. 9g, Repetition, replicates): 19.45% and 19.66%
RKO Cell viability (%) ([1]; 1.1111 µM, ED Fig. 9g, first experiment, replicates): 16.15% and 15.81%
RKO Cell viability (%) ([1]; 3.3333 µM, ED Fig. 9g, Repetition, replicates): 19.33% and 18.47%
RKO Cell viability (%) ([1]; 3.3333 µM, ED Fig. 9g, first experiment, replicates): 14.04% and 13.50%
RKO Cell viability (%) ([1]; 10.0000 µM, ED Fig. 9g, Repetition, replicates): 17.62% and 19.44%
RKO Cell viability (%) ([1]; 10.0000 µM, ED Fig. 9g, first experiment, replicates): 15.71% and 16.52%
IC50 ([1]; Homo sapiens, 96 h, RKO, 4 d of treatment): 0.207 µM
viability at 0.0137 µM ([1]; Homo sapiens, RKO, 0.0137 µM, ED Fig. 9g, first experiment, replicates, read-out: RKO Cell viability (%)): 104%
viability at 0.0412 µM ([1]; Homo sapiens, RKO, 0.0412 µM, ED Fig. 9g, Repetition, replicates, read-out: RKO Cell viability (%)): 103%
viability at 0.0412 µM ([1]; Homo sapiens, RKO, 0.0412 µM, ED Fig. 9g, first experiment, replicates, read-out: RKO Cell viability (%)): 104%
viability at 0.1235 µM ([1]; Homo sapiens, RKO, 0.1235 µM, ED Fig. 9g, Repetition, replicates, read-out: RKO Cell viability (%)): 65.6%
viability at 0.1235 µM ([1]; Homo sapiens, RKO, 0.1235 µM, ED Fig. 9g, first experiment, replicates, read-out: RKO Cell viability (%)): 73.7%
viability at 0.3704 µM ([1]; Homo sapiens, RKO, 0.3704 µM, ED Fig. 9g, Repetition, replicates, read-out: RKO Cell viability (%)): 25.3%
viability at 0.3704 µM ([1]; Homo sapiens, RKO, 0.3704 µM, ED Fig. 9g, first experiment, replicates, read-out: RKO Cell viability (%)): 36.7%
viability at 1.1111 µM ([1]; Homo sapiens, RKO, 1.1111 µM, ED Fig. 9g, Repetition, replicates, read-out: RKO Cell viability (%)): 20%
viability at 1.1111 µM ([1]; Homo sapiens, RKO, 1.1111 µM, ED Fig. 9g, first experiment, replicates, read-out: RKO Cell viability (%)): 15.3%
viability at 3.3333 µM ([1]; Homo sapiens, RKO, 3.3333 µM, ED Fig. 9g, Repetition, replicates, read-out: RKO Cell viability (%)): 19.5%
viability at 3.3333 µM ([1]; Homo sapiens, RKO, 3.3333 µM, ED Fig. 9g, first experiment, replicates, read-out: RKO Cell viability (%)): 14.5%
viability at 10 µM ([1]; Homo sapiens, RKO, 10.0000 µM, ED Fig. 9g, Repetition, replicates, read-out: RKO Cell viability (%)): 20%
viability at 10 µM ([1]; Homo sapiens, RKO, 10.0000 µM, ED Fig. 9g, first experiment, replicates, read-out: RKO Cell viability (%)): 16.2%
Cell viability (%) ([2]; Fig. 2b, compound screen, replicates): 20.98% and 10.41% and 17.65%
Cell viability (%) ([2]; Fig. 2f, 0,5 µM, replicates, 5 µM): 20.49% and 19.41%
Cell viability (%) ([2]; Fig. 2f, 0,25 µM, replicates, 25 µM): 76.91% and 71.00%
Cell viability (%) ([2]; Fig. 2f, 1 µM, replicates): 22.79% and 21.48%
viability at 1 µM ([2]; Fig. 2f, 1 µM, replicates, read-out: Cell viability (%)): 22.2%
viability at 1 µM ([2]; drug screen in KAP organoids, 1 µM concentration, n = 3, mean, read-out: Cell viability (% of DMSO)): 16.4%
induction of cell death in KAP organoids (in words) ([2]; viability assay): increased cell death induction
TRT ([3]; Fig. 2e, replicates): 4961.7 s and 5666.0 s and 5182.4 s
TRT ([3]; reciprocal of koff): 5,270 s
viability at 0.5 µM ([4]; Homo sapiens, 96 h, PDO6, 0.5 µM, 4 d): 20.6%
Cell viability (%) ([4]; PDO6, 0.5 µM, 4 d, 0.5 µM): 31.27% and 20.78%
Cell viability (%) ([4]; PDO6, 1 µM, 4 days, 1 µM): 11.74% and 11.40% and 5.21%
viability at 0.5 µM ([5]; Homo sapiens, 96 h, PDO11, 0.5 µM, 4 d, read-out: Cell viability (%)): 105%
viability at 1 µM ([5]; Homo sapiens, 96 h, PDO11, 1 µM, 4 days): 10.3%
Cell viability (%) ([5]; PDO11, 0.5 µM, 4 d, 0.5 µM): 87.92% and 104.04%
Cell viability (%) ([5]; PDO11, 1 µM, 4 days, 1 µM): 16.83% and 13.26%
Anaphase, % (of fully P-H3S10+ cells) ([6]; Fig. 4f): 0.00%
Metaphase, % (of fully P-H3S10+ cells) ([6]; Fig. 4f): 0.00%
Multipolar mitosis, % (of fully P-H3S10+ cells) ([6]; Fig. 4f): 75.00% and 72.55% and 66.43% and 67.83% and 80.50% and 84.38%
Telophase, % (of fully P-H3S10+ cells) ([6]; Fig. 4f): 1.72% and 0.65% and 0.70% and 0.00% and 1.89% and 0.78%
P-H3S10+ cells, fully positive ([6]; Fig. 4d): 12.93% and 17.02% and 15.43% and 13.33% and 14.34% and 14.40%
P-H3S10+ cells, partially positive ([6]; Fig. 4d): 12.04% and 13.24% and 14.13% and 9.97% and 10.28% and 12.15%
subcutaneous KAP tumor development (in words) ([7]; 20 mg kg^−1 daily, oral gavage): pronounced remission of CRC
Tumor volume ([7]; 2 d of treatment): 87.5 mm³ and 75.0 mm³ and 126.0 mm³ and 144.0 mm³
Tumor volume ([7]; 4 d of treatment): 48.0 mm³ and 56.0 mm³ and 40.0 mm³
viability at 1 µM ([8]; Homo sapiens, 96 h, PDO14, 1 µM, 4 days, read-out: Cell viability (%)): 38%
Cell viability (%) ([8]; PDO14, 0.5 µM, 4 d, 0.5 µM): 66.36% and 80.25% and 88.11%
Cell viability (%) ([8]; PDO14, 1 µM, 4 days, 1 µM): 35.04% and 42.53%
COLO 205 Cell viability (%) ([9]; 0.0137 µM, 4 d): 86.20% and 87.62% and 93.54% and 93.70% and 89.28%
COLO 205 Cell viability (%) ([9]; 0.0412 µM, 4 d): 89.23% and 86.13% and 86.46% and 84.55% and 84.12%
COLO 205 Cell viability (%) ([9]; 0.1235 µM, 4 d): 81.05% and 83.81% and 80.44% and 77.94% and 85.49% and 51.55%
COLO 205 Cell viability (%) ([9]; 1.1111 µM, 4 d): 10.16% and 10.58% and 11.54% and 5.54% and 4.72% and 3.60%
COLO 205 Cell viability (%) ([9]; 3.3333 µM, 4 d): 11.93% and 11.65% and 12.34% and 6.53% and 6.09% and 5.93%
COLO 205 Cell viability (%) ([9]; 10.0000 µM, 4 d): 14.19% and 14.06% and 18.78% and 17.19% and 10.60%
IC50 ([9]; Homo sapiens, 96 h, COLO 205, 4 d of treatment): 0.151 µM
viability at 0.0137 µM ([9]; Homo sapiens, COLO 205, 96 h, 0.0137 µM, 4 d): 88.4%
viability at 0.0412 µM ([9]; Homo sapiens, COLO 205, 96 h, 0.0412 µM, 4 d): 88.8%
viability at 10 µM ([9]; Homo sapiens, COLO 205, 96 h, 10.0000 µM, 4 d, read-out: COLO 205 Cell viability (%)): 13.9%
